Test systems include MCF7 breast; NCI/ADR-RES ovarian; MDA-N.
Assay in all cases: NCI anticancer screen, dose series, 48 h

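A five-concentration, 48-hour dose response in 96-well plates underlies each endpoint, interpolated linearly between surrounding concentrations. At the GI50, growth is halved. The concentration for full growth arrest is given as TGI.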

From PubChem BioAssay (NCI) come the findings set out here.

For `CN(C)CCCNC1=C(Cl)C(=O)c2ccccc2C1=O`, the figures for the GI50 with MCF7 breast and with NCI/ADR-RES ovarian were 1610 nM and 7.93 µM, respectively. The results for the TGI in the assay with MCF7 breast and with NCI/ADR-RES ovarian were 3.53 µM and 31.8 µM, respectively.
Consider `CC[C@@]12CCCN3CC[C@]4(c5cccc(OC)c5N(C(C)=O)[C@@H]4CC1)[C@H]32`, for which the TGI with MCF7 breast, with NCI/ADR-RES ovarian and in the assay with MDA-N was greater than 100 µM throughout.
Take `C[C@@H](CS(C)(=O)=O)Nc1ncc2cc(Oc3ccc(F)cc3F)c(=O)n(C)c2n1`: the GI50 was greater than 25000 nM in the assay with MCF7 breast and greater than 25 µM in the assay on NCI/ADR-RES ovarian. The TGI with MCF7 breast and in the assay with NCI/ADR-RES ovarian was greater than 25 µM throughout.
For the compound `Oc1ccc(Cl)cc1-c1cc(-c2ccccc2Cl)[nH]n1`, in the assay with MCF7 breast, the GI50 was 362 nM and the TGI is greater than 100 µM. In the assay on NCI/ADR-RES ovarian, the GI50 is 8.55 µM and the TGI is greater than 100 µM.
In the case of `Cn1ccnc1C(=O)/C=C/c1ccc(CC(=O)Nc2ccc(Br)cc2)cc1`, in the assay on MCF7 breast, the GI50 is 1840 nM and the TGI was greater than 16.7 µM. Further, in the assay with NCI/ADR-RES ovarian, the GI50 is 5.08 µM and the TGI was greater than 16.7 µM.
`COc1cc2c(c(OC)c1O)C(=O)C(OC)C(c1ccc(O)c(O)c1)O2` (stereo unspecified): the GI50 in the assay with MCF7 breast was 391 nM; in the assay with NCI/ADR-RES ovarian, 0.203 µM. Besides, the TGI in the assay on MCF7 breast and with NCI/ADR-RES ovarian was greater than 100 µM in each case.
Regarding `c1cc2c(cc1NC1=NCCO1)CCC2`, the TGI in the assay with MCF7 breast and in the assay with MDA-N was greater than 10 µM throughout.
As for `Cc1cnc(NC(=O)C(Cc2ccccc2)NC(=O)c2ccccc2)s1` (stereo unspecified), in the assay on MCF7 breast, the GI50 was 1550 nM and the TGI is 5.12 µM. Also, in the assay on NCI/ADR-RES ovarian, the GI50 was 4.49 µM and the TGI is 69.2 µM.
For `O=C(Nc1ccc(F)cc1F)c1cc(I)ccc1O`, in that order: 2770 nM, greater than 100 µM, 2.92 µM and 33.1 µM.
For `O=C(CN1CCN(c2cc3c(cc2F)c(=O)c(C(=O)N/N=C/c2ccccc2O)cn3C2CC2)CC1)N/N=C\c1ccccc1O`, in that order: 398 nM, greater than 100 µM, 0.91 µM and greater than 100 µM.
As for `COc1cc(/C=C/c2cc(/C=C/c3ccc(O)c(OC)c3)n(C(=O)Nc3ccc(F)cc3)n2)ccc1O`, in the assay on MCF7 breast, the GI50 was 402 nM and the TGI is 7.66 µM. In the assay with NCI/ADR-RES ovarian, the GI50 is 0.449 µM and the TGI is 27.4 µM.
Take `O=C1c2cccnc2-c2nc(-c3ccccc3[N+](=O)[O-])cc3c2c1nc1ccccc13`: the GI50 with MCF7 breast is 3250 nM; with NCI/ADR-RES ovarian, 22.3 µM; in the assay on MDA-N, 12.2 µM. Also, the results for the TGI with MCF7 breast, with NCI/ADR-RES ovarian and in the assay with MDA-N were 15.4 µM, greater than 69.3 µM and 26.1 µM, respectively.
Regarding `CC1=C(C(=O)Nc2ccc(F)c(Cl)c2)C(c2ccc(Cl)cc2)NC(=O)N1` (stereo unspecified), in the assay on MCF7 breast, the GI50 is 18400 nM and the TGI stood at 44.9 µM. Further, in the assay with NCI/ADR-RES ovarian, the GI50 was 25.4 µM and the TGI amounted to 75.2 µM.
For `CC1=C(C#N)C23C(=O)c4ccccc4C(O)=C2C(=O)C=CC3(O)N1Cc1ccccc1` (stereo unspecified), in that order: 41600 nM, greater than 100 µM, 2.84 µM and 30.6 µM.
As for `COc1ccc2c(c1)C(=O)/C(=C/c1ccc(OCC(=O)Nc3nccs3)cc1)O2`, in the assay with MCF7 breast, the GI50 is 5750 nM and the TGI was 18 µM. Further, in the assay with NCI/ADR-RES ovarian, the GI50 was 27.3 µM and the TGI was greater than 100 µM.
As for `NC(CSC(c1ccccc1)(c1ccccc1)c1ccc2c(c1)OCO2)C(=O)O` (stereo unspecified), in the assay with MCF7 breast, the GI50 was 298 nM and the TGI was 40.2 µM. Moreover, in the assay with NCI/ADR-RES ovarian, the GI50 was 4.12 µM and the TGI stood at 26.8 µM.
`CC(=O)[O][Hg][c]1c(N)c(C)cc(C)c1F`: the GI50 in the assay on MCF7 breast is 665 nM; in the assay with NCI/ADR-RES ovarian, 3.48 µM. Also, the TGI with MCF7 breast was 2.99 µM; with NCI/ADR-RES ovarian, 23.6 µM.
For `CCCCCCCC(=O)SCC/C=C/[C@@H]1CC(=O)NCc2cccc(n2)C2=N[C@@](C)(CS2)C(=O)N[C@@H](C(C)C)C(=O)N1`, in the assay on MCF7 breast, the GI50 is 623 nM and the TGI is greater than 33.3 µM. In addition, in the assay on NCI/ADR-RES ovarian, the GI50 is 31.7 µM and the TGI is greater than 33.3 µM.
Consider `C=C(CNCCO)[C@@H]1CC[C@]2(CO)CC[C@]3(C)[C@H](CC[C@@H]4[C@@]5(C)CCC(N)C(C)(C)[C@@H]5CC[C@]43C)[C@@H]12` (stereo partly specified), for which, in the assay on MCF7 breast, the GI50 was 1770 nM and the TGI turned out to be 3.57 µM. In the assay with NCI/ADR-RES ovarian, the GI50 is 17 µM and the TGI came to 33.8 µM.
Regarding `COc1cc2nc(C)nc(N[C@H](C)c3cc(N)cc(C(F)(F)F)c3)c2cc1O[C@H]1CCOC1`, in the assay on MCF7 breast, the GI50 is 12900 nM and the TGI amounted to 31.3 µM. In addition, in the assay with NCI/ADR-RES ovarian, the GI50 is 18.3 µM and the TGI amounted to 60.9 µM.
`O=C(NCCNc1nccc(-c2c(-c3cccc(O)c3)nc3sccn23)n1)c1ccccc1O`: in the assay on MCF7 breast, the GI50 was 3270 nM and the TGI came out at 19.9 µM. Also, in the assay with NCI/ADR-RES ovarian, the GI50 is 6.64 µM and the TGI was 70.1 µM.
As for `COc1ccc(-c2cc(-c3ccc(Nc4nc(Nc5ccccc5)nc(Nc5ccc(Cl)cc5)n4)cc3)nc(N)c2C#N)cc1`, in the assay with MCF7 breast, the GI50 was 941 nM and the TGI was greater than 50 µM. Also, in the assay with NCI/ADR-RES ovarian, the GI50 was 3.66 µM and the TGI was greater than 43.1 µM.
Consider `NC1CCC(Nc2nc(NCc3ccc(-c4ccco4)nc3)c3ncn(C4CCCC4)c3n2)CC1` (stereo unspecified), for which, in the assay with MCF7 breast, the GI50 is 26.7 nM and the TGI came out at 1.22 µM. The compound further gave a TGI with NCI/ADR-RES ovarian of 1.39 µM.
With `COC(=O)Nc1nc2ccc(S(=O)c3ccccc3)cc2[nH]1` (stereo unspecified), the GI50 with MCF7 breast was 3120 nM; in the assay with NCI/ADR-RES ovarian it was 3.81 µM. Moreover, the TGI with MCF7 breast and with NCI/ADR-RES ovarian was greater than 100 µM in each case.
For the compound `CCOc1ccccc1-n1c(CN2CCN(C(=O)COc3ccc(CNCCCCCCN4C5CCCC4CC(OC(=O)Nc4cc(C)ccc4OC)C5)cc3)CC2)nc2ccccc2c1=O` (stereo unspecified), in the assay on MCF7 breast, the GI50 was 750 nM and the TGI was determined as 2.06 µM. In the assay on NCI/ADR-RES ovarian, the GI50 is 7.04 µM and the TGI turned out to be 19.6 µM.
`CSc1ccccc1C#C/C=C\C#Cc1ccccc1N1CCCC1=O`: the TGI is greater than 50 µM in the assay on MCF7 breast and greater than 19.9 µM in the assay on NCI/ADR-RES ovarian.
In the case of `O=C(Nc1ccc(I)cc1)c1cc([N+](=O)[O-])ccc1O`, in the assay with MCF7 breast, the GI50 was 3930 nM and the TGI was greater than 100 µM. Further, in the assay with NCI/ADR-RES ovarian, the GI50 is 5.85 µM and the TGI was greater than 100 µM.
As for `CCOC(=O)Nc1nc2ccc(OCC)cc2s1`, in the assay on MCF7 breast, the GI50 is 4140 nM and the TGI is greater than 100 µM. In the assay with NCI/ADR-RES ovarian, the GI50 is 7.39 µM and the TGI is greater than 100 µM.
Consider `Clc1cccc(Cc2cn3cc(-c4ccccc4)nc3s2)c1Cl`, for which, in the assay with MCF7 breast, the GI50 is 11500 nM and the TGI was greater than 100 µM. In the assay with NCI/ADR-RES ovarian, the GI50 is 76.4 µM and the TGI is greater than 100 µM.
Turning to `CN(C)c1ccc(-c2cc(-c3ccc(Nc4nc(Nc5ccc(Cl)cc5)nc(Nc5ccc(Cl)cc5)n4)cc3)no2)cc1`, in the assay with MCF7 breast, the GI50 was 2460 nM and the TGI came to 10.7 µM. In the assay with NCI/ADR-RES ovarian, the GI50 is 5.38 µM and the TGI was found to be 88.6 µM.
With `CNC(=O)c1ccccc1Nc1nc(Nc2ccc(N3CCOCC3)cc2OC)ncc1Cl`, in the assay with MCF7 breast, the GI50 is 133 nM and the TGI is greater than 50.7 µM. Moreover, in the assay with NCI/ADR-RES ovarian, the GI50 is 1.11 µM and the TGI is greater than 50.7 µM.
Take `Fc1ccc(Nc2ncnc3ccc(-c4cnc5[nH]ccc5c4)cc23)cc1Cl`: in the assay with MCF7 breast, the GI50 was 335 nM and the TGI is greater than 38 µM. Besides, in the assay with NCI/ADR-RES ovarian, the GI50 was 2.98 µM and the TGI is greater than 87.8 µM.
`CCc1ccc2c(c1)C(=O)c1c-2n(CCCBr)c(=O)c2cc([N+](=O)[O-])ccc12`: in the assay with MCF7 breast, the GI50 is 19900 nM and the TGI was greater than 50 µM. Also, in the assay with NCI/ADR-RES ovarian, the GI50 was greater than 50 µM and the TGI was greater than 50 µM.
Regarding `Nc1cc2nc3ccccc3sc-2cc1=O`, in the assay on MCF7 breast, the GI50 was 2380 nM and the TGI is 9.63 µM. Also, in the assay with NCI/ADR-RES ovarian, the GI50 was 2.96 µM and the TGI is 16.7 µM.
The like results for `Cc1cc2nc(C(Cl)Cl)nc(-c3ccc(Cl)cc3)n2n1` were, in that order, 465 nM, 5.1 µM, 0.682 µM and 3.89 µM.
Take `CC(C)c1ccc(C(C)C(=O)N(CC2=C(C(C)c3ccccn3)c3ccccc3C2)C(C)C)cc1` (stereo unspecified): the GI50 in the assay with MCF7 breast was 3230 nM; in the assay with NCI/ADR-RES ovarian, 2.67 µM. Further, the TGI in the assay with MCF7 breast turned out to be 11.4 µM; in the assay with NCI/ADR-RES ovarian, 19.2 µM.
For `COc1c2ccoc2c(/C=C/C=O)c2oc(-c3ccccc3)cc(=O)c12`, in that order: 2720 nM, 3.01 µM, 58.3 µM and greater than 100 µM.
For the compound `COC(=O)[C@@H](C)C[C@H](Cc1ccc(F)cc1)NC(=O)c1csc([C@@H](C[C@H](C(C)C)N(C)C(=O)[C@@H](NC(=O)[C@H]2CCCCN2C)C(C)C)OC(C)=O)n1`, the TGI in the assay with MCF7 breast and in the assay with NCI/ADR-RES ovarian was greater than 16.7 µM throughout.
